{"source": "patent US20200249194A9", "about": "“PROSTATE PROTEASE NANOSENSORS AND USES THEREOF” (Massachusetts Institute of Technology, priority 2017, published 2020)", "key": {"[1]": {"test_system": "22Rv1 cell line supernatant", "experiment": "Cleavage of 19-plex fluorogenic ABNs in 22Rv1 supernatant", "assay_type": "cell-based, human"}, "serine hydrolase": {"test_system": "serine hydrolase", "parameters": "species or system human"}, "[2]": {"test_system": "PC3 cell line supernatant", "experiment": "Cleavage of 19-plex fluorogenic ABNs in PC3 supernatant", "assay_type": "cell-based, human", "conditions": "for overall cleavage activity in the presence of inhibitor: PC3 supernatant, 19-plex fluorogenic ABNs; for cleavage by PC3 supernatant compared with 22Rv1: in vitro, fluorogenic"}, "[3]": {"test_system": "22Rv1 xenograft tumor homogenates", "experiment": "Protease activity of tumor homogenates ex vivo", "assay_type": "biochemical, mice"}, "tumor protease activity": {"test_system": "tumor protease activity", "experiment": "In vivo protease activity imaging study", "parameters": "species or system mice", "conditions": "red-shifted FRET pair"}, "MMP13, uPA, KLK, MMP": {"test_system": "MMP13, uPA, KLK, MMP", "experiment": "Substrate cleavage assay of protease nanosensors (FIG. 12A)", "assay_type": "biochemical", "description": "Xenograft model 22Rv1 (a non-metastatic tumor, referred to as Tnon-met) is derived from a primary tumor. […] PC3 (a metastatic tumor, referred to as Tmet) is undifferentiated, AR^−, PSA^−, and metastasizes to lymph node (LN), lung, and bone. Multiplexed sensors were selected to classify Tmet from Tnon-met (FIGS. 7A-7F). A substrate cleavage assay was performed (FIG. 12A) with several protease nanosensors (FIGS. 9A-9B and FIGS. 12A-12B)."}, "[4]": {"test_system": "15 selected proteases (MPs and SPs); Thrombin, Factor Xa and human plasma as negative filters", "experiment": "Cleavage of FRET-paired peptide substrates (free and PEG-coupled) by recombinant proteases", "assay_type": "biochemical", "source_text": "With an identified set of MPs and SPs, a panel of substrates was developed to measure their activity. A panel of 58 FRET-paired peptide substrates (labeled T1-58-Q, where Q denotes quenched Table 6) was screened for cleavage by the 15 selected proteases. To account for background cleavage in circulation, Thrombin, Factor Xa, and human plasma were included as negative filters. The library comprised peptides with diverse physiochemical properties to provide broad coverage, and kinetic parameters of cleavage of the FRET-paired substrates by recombinant proteases were measured and z-score normalized by protease. Substrates were grouped by hierarchical clustering to remove substrates with overlapping cleavage patterns, as they would not provide any orthogonal insight, resulting in a down-selected panel of 26 substrates.\nFor use in vivo, the peptides may be conjugated to a nanoparticle having robust accumulation in the prostate abilities. Thus, a biodistribution study was performed with three fluorophore-labeled carrier candidates and tested for their biodistribution following i.v. injection. […] Thus, the peptide substrates were conjugated to a PEG core and their cleavage profile was tested. […] Further mechanistic understanding of this variability may improve the development of ABN technology by identifying optimal surface presentation. […] Some substrates were cleaved specifically by a single protease on the biomarker list, whereas others were cleaved by multiple or all members of the enzyme family tested (Table 7)."}, "MMP activity": {"test_system": "MMP activity", "experiment": "FRET peptide substrate-cleavage assay in prostate tumor and NAT tissue samples", "assay_type": "biochemical", "conditions": "human prostate tumor and matched NAT", "description": "An assay was developed to measure protease activity in tissue samples. The mouse samples were excised, frozen in LN2, homogenized in PBS at 200 mgs/mL, and incubated with Q7 (FIG. 14A). In situ tissue zymography assays were additionally developed for frozen sections. Five sets of clinical human samples (both tumor and normal adjacent) were examined (FIG. 14B). The remaining fraction was tested on FRET substrates. Human sample cleavage was analyzed with substrate cleavage assays (Table 3). It was observed that many substrates are differentially cleaved in cancer tissue versus normal adjacent tissue.\nAs MP ABPs are less robust than serine ABPs, a FRET peptide substrate-cleavage assay was used to assay for MMP activity in the same tissue set evaluated by SOMAscan. Given the minimal tissue material available, each sample was evaluated with only a subset of substrates in duplicate. Multiple substrates were cleaved to a greater extent in tumor samples."}, "22Rv1 xenografts": {"test_system": "22Rv1 xenografts", "experiment": "Urinary reporter signal of ABNs in 22Rv1 xenograft-bearing mice", "assay_type": "in vivo"}, "PC3 xenografts": {"test_system": "PC3 xenografts", "experiment": "Urinary reporter signal of ABNs in PC3 xenograft-bearing mice", "assay_type": "in vivo", "conditions": "for classification of PC3-bearing from 22Rv1-bearing mice: ROC curve analysis; for relative urine signal, PC3 compared with 22Rv1: 19-plex, mass-encoded reporters, xenografts ~100 mm3", "description": "Having achieved this proof-of-concept urine monitoring of protease activity with a single substrate, the entire ABN library was tested in vivo with an emphasis on identifying reporters to differentiate mice bearing more aggressive (PC3) versus less aggressive (22Rv1) xenografts. To quantify cleavage of the entire library in urine, the substrates were barcoded using a next generation of mass-encoded reporters built upon the isobar coded reporters method (Kwong et al., Nat Biotechnol 31:63-70 (2013)). This […] sensor library enables increased multiplexing by uniquely labeling each peptide with stable 13C and 15N atoms, allowing for quantitation of reporter barcodes across a large dynamic range using liquid chromatography-tandem mass spectrometry (Table 8). To account for variability in glomerular filtration rate, urine volume, and hydration state, a free reporter (not coupled to PEG) was co-injected. The 19-plex ABN library was serially injected i.v. to PC3 tumor-bearing mice over the course of tumor development. […] Next, the ability of the 19-plex library to classify PC3 from 22Rv1 tumor-bearing mice was sought to be determined. Using the mass-encoded reporters to examine the cleavage of each individual sensor, an early time point was focused on and it was observed that several substrates were differentially cleaved between animals bearing similarly sized xenografts ( 100 mm3) from the more (PC3) versus less aggressive (22Rv1) cell lines. Overall, the cleavage profile differences between the two cohorts agree with each cell line's protease expression patterns and the substrate specificity of each protease. […] To simplify urinalysis, these ABNs were designed to release biotinylated urinary reporters to enable ELISA-based readouts. […] Additionally, PSA measurements in mice may overestimate its sensitivity, as there is no mouse homolog of PSA (Lundwall et al., Biol Chem 387:243-249 (2006)). It was next tested whether the three-plex iRGD-ABNs could classify distinct prostate cancer tumors. […] Based on ROC curve analysis, the […] ABNs classified the mice bearing the more aggressive PC3-derived tumors as distinct from 22Rv1-bearing mice. […] Differential expression analysis was performed on TCGA data using […]. Survival analysis was performed using cBioPortal. SOMAscan was performed at the Beth Israel Deaconess Medical Center (BIDMC) Genomics Proteomics Core. […] Sigma) at 1 μM in PBS. • Animal Models. All animal studies were approved by Massachusetts Institute of Technology's Committee on Animal Care (CAC) (Protocol 0417-025-20). Four- to six-week-old male NCr nude mice (Taconic) were injected bilaterally with 3.5×10^6 PCa cells per flank in a 1:1 ratio of complete media and Matrigel (354234; Corning). Baseline urine measurement was obtained before xenograft implantation. Histology sectioning and staining was performed at KI Histology Core."}, "[5]": {"conditions": "PEG-coupled quenched substrate, protease that cleaves it"}}, "note": "Entries after “also recorded” stand apart in the source; their conditions may differ. Non-standard residues stand in square brackets, D forms with d. Primed or numbered codes have the meaning given here. No end group written: not given here. *: point of attachment. 5FAM = O=C1OC2(c3ccc(O)cc3Oc3cc(O)ccc32)c2ccc(C(=O)*)cc21; Biotin = O=C1N[C@H]2[C@H](CS[C@H]2CCCCC(=O)*)N1; CPQ2 = quencher paired with 5FAM as FRET pair; PEG2′ = not defined here; PEG = not defined here; QSY21 = QSY21 quencher; Cy5 = Cy5 fluorophore", "data": [{"compound": "NCCc1ccc(S(=O)(=O)F)cc1", "note": "[AEBSF]", "values": [{"measurement": "overall cleavage activity in the presence of inhibitor", "setting": "[1]", "value": "reduced"}, {"measurement": "effect of inhibitor on FP-TAMRA labeling", "setting": "serine hydrolase", "value": "mitigated"}, {"measurement": "overall cleavage activity in the presence of inhibitor", "setting": "[2]", "value": "reduced"}]}, {"compound": "CNC(=O)[C@@H](NC(=O)[C@H](CC(C)C)[C@H](O)C(=O)NO)C(C)(C)C", "note": "[marimastat]", "values": [{"measurement": "overall cleavage activity in the presence of inhibitor", "setting": "[1]", "value": "reduced"}, {"measurement": "T7 sensor cleavage in the presence of inhibitor", "setting": "[3]", "value": "diminished"}, {"measurement": "overall cleavage activity in the presence of inhibitor", "setting": "[2]", "value": "reduced"}]}, {"compound": "(QSY21)-GGPLGVRGKK(Cy5)-(PEG2)-C (QSY21-GGPLGVRGKK(Cy5)[PEG2′]C) [red-shifted FRET paired T7 substrate]", "values": [{"measurement": "fluorescence signal, tumor compared with liver", "setting": "tumor protease activity", "value": "greater fluorescence signal in the tumor compared with the liver"}]}, {"compound": "PB2: protease nanosensor, uPA substrate, SEQ ID NO: 8 (Biotin-EGVNDNEEGFFSARKGGGSGRSANAKGC(PEG); reading uncertain; also: FAM label at residues 15-16, exact place not given here)", "values": [{"measurement": "substrate specificity of nanosensor", "setting": "MMP13, uPA, KLK, MMP", "value": "uPA substrate"}]}, {"compound": "PB13: protease nanosensor, broadly cleaved KLK substrate, SEQ ID NO: 9 (Biotin-EGVNDNEEGFFSARKGSGSKIIGGGC(PEG); reading uncertain; also: TAMRA at positions 15-16)", "values": [{"measurement": "substrate specificity of nanosensor", "setting": "MMP13, uPA, KLK, MMP", "value": "broadly cleaved KLK substrate"}]}, {"compound": "PEG-T7-Q: quenched FRET peptide substrate T7 conjugated to PEG core (5FAM-GGPLGVRGKK(CPQ2)[PEG2′]C; also: conjugated to PEG core, attachment not given here)", "values": [{"measurement": "Second hit", "setting": "[4]; [5]", "value": "MMP26"}, {"measurement": "Top hit", "setting": "[4]; [5]", "value": "MMP9"}]}, {"compound": "PEG-T24-Q: quenched FRET peptide substrate T24 conjugated to PEG core (5FAM-GGLGPKGQTGK(CPQ2)[PEG2′]C; also: conjugated to PEG core, attachment not given here)", "values": [{"measurement": "Top hit", "setting": "[4]; [5]", "value": "MMP13"}]}, {"compound": "PEG-T39-Q: quenched FRET peptide substrate T39 conjugated to PEG core (5FAM-GGGSGRSANAKGK(CPQ2)[PEG2′]GC; also: conjugated to PEG core, attachment not given here)", "values": [{"measurement": "Top hit", "setting": "[4]; [5]", "value": "uPA"}]}, {"compound": "T7: MMP-sensing peptide substrate (GPLGVRGK) of ABN library, reporter R3_04 (also: reporter R3_04 attached) [Substrate T7]", "values": [{"measurement": "cleavage signal, tumor vs NAT samples", "setting": "MMP activity", "value": "signal was elevated across the majority of tumor samples"}, {"measurement": "urine signal", "setting": "22Rv1 xenografts; 19-plex library, 22Rv1 mice", "value": "gave rise to urine signals"}, {"measurement": "urinary signal", "setting": "22Rv1 xenografts; single sensor, biotinylated reporter, 22Rv1 xenograft-bearing mice", "value": "increased urinary signal"}, {"measurement": "urine signal relative to control animals", "setting": "22Rv1 xenografts; three-plex iRGD-ABNs, individual reporter, 22Rv1-bearing", "value": "elevated relative to control animals"}, {"measurement": "urine signal", "setting": "PC3 xenografts; 19-plex library, PC3 mice", "value": "gave rise to urine signals"}, {"measurement": "classification of PC3-bearing from 22Rv1-bearing mice", "setting": "PC3 xenografts; three-plex iRGD-ABNs", "value": "did not classify between the two cohorts"}, {"measurement": "urine signal relative to control animals", "setting": "PC3 xenografts; three-plex iRGD-ABNs, individual reporter, PC3-bearing", "value": "elevated relative to control animals"}]}, {"compound": "T24: MMP13 peptide substrate (GGLGPKGQTG) of ABN library, reporter R3_06 (also: reporter R3_06 attached) [Substrate T24]", "values": [{"measurement": "protease that cleaves the substrate in vitro", "setting": "[4]", "value": "MMP13"}, {"measurement": "relative urine signal, PC3 compared with 22Rv1", "setting": "PC3 xenografts", "value": "higher relative urine signal change; also recorded: elevated"}, {"measurement": "cleavage (individual reporter readout), PC3 relative to 22Rv1", "setting": "PC3 xenografts; three-plex iRGD-ABNs", "value": "significantly greater cleavage"}, {"measurement": "classification of PC3-bearing from 22Rv1-bearing mice", "setting": "PC3 xenografts; three-plex iRGD-ABNs", "value": "classified"}, {"measurement": "cleavage by PC3 supernatant compared with 22Rv1", "setting": "[2]", "value": "cleaved differentially"}]}, {"compound": "T39: uPA peptide substrate (GGGSGRSANAKG) of ABN library, reporter R3_09 (also: reporter R3_09 attached) [Substrate T39]", "values": [{"measurement": "protease that cleaves the substrate in vitro", "setting": "[4]", "value": "uPA"}, {"measurement": "relative urine signal, PC3 compared with 22Rv1", "setting": "PC3 xenografts", "value": "higher relative urine signal change; also recorded: elevated"}, {"measurement": "cleavage (individual reporter readout), PC3 relative to 22Rv1", "setting": "PC3 xenografts; three-plex iRGD-ABNs", "value": "significantly greater cleavage"}, {"measurement": "classification of PC3-bearing from 22Rv1-bearing mice", "setting": "PC3 xenografts; three-plex iRGD-ABNs", "value": "classified"}, {"measurement": "cleavage by PC3 supernatant compared with 22Rv1", "setting": "[2]", "value": "cleaved differentially"}]}]}
